Measurements from US20190175507A1, “COMPOSITIONS FOR ORAL ADMINISTRATION OF ACTIVE AGENTS” (Tamarisk Technologies Group LLC, priority 2016, published 2019).

Assay: Pharmacokinetics of resveratrol-containing particles in orally dosed Sprague-Dawley rats
Format: in vivo
Settings: rat, plasma, 20 mg/kg
Method: Parameters were estimated using Watson pharmacokinetic software 7.4.2 (Thermo Electron Corporation) using a non-compartmental approach consistent with the various routes of administration. All parameters were generated from […] individual animal concentrations in plasma. Parameters were estimated using nominal sampling times to be relative to the start of each dose administration (within an acceptable tolerance limit). As no dose formulation samples were analyzed, the nominal calculated dose for active ingredient (20 mg/kg, as per the study protocol, was used for dose-normalization purposes). The area under the test item concentration versus time curve (AUC) was calculated using the linear-log linear trapezoidal method. AUC was not calculated for PK profiles with less than 3 consecutive quantifiable concentrations of test article at separate time points. When practical, the terminal elimination phase of each concentration versus time curve was identified using at least the final three observed concentration values. The slope of the terminal elimination phase was determined using linear regression on the unweighted concentration data. […] The parameters described below were reported to 3 significant figures. Animals were fasted overnight, food was returned 4 hours post dosing. […] Aggregated data is summarized for individual animals in Table 4, below.

With `Oc1ccc(C=Cc2cc(O)cc(O)c2)cc1` [Unencapsulated Resveratrol, Resveratrol] the concentration at 0.5 h (oral) was 78.4 ng/mL, the concentration at 1 h (oral) was 29.3 ng/mL and the concentration at 2 h (oral) was 47.2 ng/mL. It also gave a Cmax (po) of 82.4 ng/mL and an AUC (po, read-out: AUC(0-x)) of 82.8 ng·h/mL.
